Source: ChEMBL document CHEMBL1201862, “PubChem BioAssay data set” (2004)
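Step 1: Grow cells in 96-well plates. Step 2: Expose to compound for 48 hours at 5 concentrations. Step 3: Interpolate endpoints linearly; if unreached, use highest concentration. GI50 = concentration required for 50% inhibition of growth.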 Activity calls are given as the source filed them. Rule as the data show it: active = GI50 up to about 1.1 µM and inactive = higher.

Columns and labels:
Assay in all cases: NCI tumour cell line growth inhibition, 48 h
PC-3 = system: PC-3
NCI-H23 = system: NCI-H23
SW-620 = system: SW-620
IGROV-1 = system: IGROV-1
RXF 393 = system: RXF 393
CCRF-CEM = system: CCRF-CEM
HOP-92 = system: HOP-92
U-251 = system: U-251
NCI-H226 = system: NCI-H226
RPMI-8226 = system: RPMI-8226
NCI-H522 = system: NCI-H522
SK-OV-3 = system: SK-OV-3
COLO 205 = system: COLO 205
ACHN = system: ACHN
KM12 = system: KM12
OVCAR-8 = system: OVCAR-8
A498 = system: A498
OVCAR-4 = system: OVCAR-4
SR = system: SR
MCF7 = system: MCF7

Structure (SMILES) | GI50 (PC-3) | GI50 (NCI-H23) | GI50 (SW-620) | GI50 (IGROV-1) | GI50 (RXF 393) | GI50 (CCRF-CEM) | GI50 (HOP-92) | GI50 (U-251) | GI50 (NCI-H226) | GI50 (RPMI-8226) | GI50 (NCI-H522) | GI50 (SK-OV-3) | GI50 (COLO 205) | GI50 (ACHN) | GI50 (KM12) | GI50 (OVCAR-8) | GI50 (A498) | GI50 (OVCAR-4) | GI50 (SR) | GI50 (MCF7)
C#C[C@@H](OC(=O)c1ccc([N+](=O)[O-])cc1)[C@@H]1C[C@H]2O[C@@H]([C@H](C/C=C/CC)OC(=O)c3ccc([N+](=O)[O-])cc3)C[C@H]2O1 | > 100 µM (inactive) | > 100 µM (inactive) | > 100 µM (inactive) | 83.4 µM (inactive) | > 100 µM (inactive) | > 100 µM (inactive) | > 100 µM (inactive) | > 100 µM (inactive) | > 100 µM (inactive) | > 100 µM (inactive) | 32.6 µM (inactive) | > 100 µM (inactive) | > 100 µM (inactive) | > 100 µM (inactive) | > 100 µM (inactive) | > 100 µM (inactive) | > 100 µM (inactive) | > 100 µM (inactive) | – | –
O=C1C2=C(C(c3ccccc3)=C1c1ccccc1)c1ccccc1C1(c3ccccc3)C2=C(O)C(c2ccccc2)=C1c1ccccc1 (configuration not stated) | – | > 100 µM (inactive) | > 100 µM (inactive) | > 100 µM (inactive) | > 100 µM (inactive) | – | > 100 µM (inactive) | > 100 µM (inactive) | > 100 µM (inactive) | > 100 µM (inactive) | > 100 µM (inactive) | > 100 µM (inactive) | > 100 µM (inactive) | > 100 µM (inactive) | > 100 µM (inactive) | > 100 µM (inactive) | > 100 µM (inactive) | > 100 µM (inactive) | > 100 µM (inactive) | –
CCOC(OCC)C(CC)[Se]c1ccccc1[N+](=O)[O-] (configuration not stated) | 3.27 µM (inactive) | 3.03 µM (inactive) | 2.5 µM (inactive) | 3.48 µM (inactive) | 1.8 µM (inactive) | 2 µM (inactive) | > 22.2 µM (inactive) | 2.51 µM (inactive) | 7.96 µM (inactive) | 3.44 µM (inactive) | 1.72 µM (inactive) | 2.31 µM (inactive) | 2.48 µM (inactive) | 11.3 µM (inactive) | 3.06 µM (inactive) | 4.48 µM (inactive) | 2.17 µM (inactive) | > 55.5 µM (inactive) | 0.593 µM (active) | –
O=C1Oc2cc3c(c4cccc1c24)OCN(c1ccc(Cl)cc1)C3 | – | 18.8 µM (inactive) | 7.4 µM (inactive) | > 100 µM (inactive) | > 52.7 µM (inactive) | 9.23 µM (inactive) | 20.5 µM (inactive) | 41.9 µM (inactive) | > 100 µM (inactive) | 7.14 µM (inactive) | 15.2 µM (inactive) | > 100 µM (inactive) | 7.82 µM (inactive) | 3.13 µM (inactive) | > 44.5 µM (inactive) | 11.7 µM (inactive) | > 100 µM (inactive) | 28.1 µM (inactive) | 8.79 µM (inactive) | –
C[C@]12CC[C@H]3[C@@H](CC[C@]4(O)C[C@@H](O)CC[C@]34CO)[C@@]1(O)CC[C@@H]2C1=CC(=O)OC1 [STROPHANTHIDOL] | 2 µM (inactive) | 1.48 µM (inactive) | 2.37 µM (inactive) | 2.79 µM (inactive) | 0.223 µM (active) | 0.522 µM (active) | 2.78 µM (inactive) | 2.7 µM (inactive) | 4.03 µM (inactive) | 1.95 µM (inactive) | 0.447 µM (active) | 2.64 µM (inactive) | 3.73 µM (inactive) | 0.467 µM (active) | 3.66 µM (inactive) | 1.77 µM (inactive) | 1.61 µM (inactive) | 1.12 µM (inactive) | 0.861 µM (active) | –
Cc1ccccc1/N=N/c1ccc(/N=N/c2c(O)ccc3ccccc23)c(C)c1 [SCARLET RED] | > 100 µM (inactive) | > 100 µM (inactive) | > 100 µM (inactive) | > 100 µM (inactive) | > 100 µM (inactive) | > 10 µM (inactive) | > 100 µM (inactive) | > 100 µM (inactive) | > 100 µM (inactive) | > 100 µM (inactive) | > 100 µM (inactive) | > 100 µM (inactive) | > 100 µM (inactive) | > 100 µM (inactive) | > 100 µM (inactive) | > 100 µM (inactive) | > 100 µM (inactive) | > 100 µM (inactive) | – | –
O=C(/C=C\c1cccc2ccccc12)c1cccc2ccccc12 | – | 5.93 µM (inactive) | 3.37 µM (inactive) | 8.17 µM (inactive) | 5 µM (inactive) | 3.3 µM (inactive) | > 10 µM (inactive) | 6.34 µM (inactive) | 9.16 µM (inactive) | 6.95 µM (inactive) | 7.64 µM (inactive) | > 10 µM (inactive) | > 10 µM (inactive) | 11.6 µM (inactive) | 6.55 µM (inactive) | 5.82 µM (inactive) | 17.2 µM (inactive) | 6.37 µM (inactive) | 3.25 µM (inactive) | –
CCCc1c(C(=O)OCC)[nH]c(-c2ccc(-c3[nH]c(C(=O)OCC)c(CCC)c3C(=O)OCC)s2)c1C(=O)OCC | – | 28.2 µM (inactive) | > 100 µM (inactive) | 58.2 µM (inactive) | 5.38 µM (inactive) | > 100 µM (inactive) | 25.2 µM (inactive) | 36.1 µM (inactive) | 72.1 µM (inactive) | 87.7 µM (inactive) | 32.6 µM (inactive) | 27.1 µM (inactive) | > 100 µM (inactive) | 34.8 µM (inactive) | 22.1 µM (inactive) | 48 µM (inactive) | 43.9 µM (inactive) | 18.4 µM (inactive) | 7.26 µM (inactive) | –
COc1ccc(Nc2nc(NNC(=O)Cc3ccccc3)nc(NNC(=O)c3ccncc3)n2)cc1 | – | > 10 µM (inactive) | > 10 µM (inactive) | > 10 µM (inactive) | – | > 10 µM (inactive) | > 10 µM (inactive) | > 10 µM (inactive) | – | – | > 10 µM (inactive) | > 10 µM (inactive) | > 10 µM (inactive) | > 10 µM (inactive) | > 10 µM (inactive) | > 10 µM (inactive) | > 10 µM (inactive) | > 10 µM (inactive) | > 10 µM (inactive) | > 10 µM (inactive)
COC(=O)C1=C(C(=O)OC)C23CC4CCC2(C(=O)C1O3)C4(C)C (configuration not stated) | – | > 100 µM (inactive) | 78.3 µM (inactive) | > 100 µM (inactive) | 58.5 µM (inactive) | 22.1 µM (inactive) | 48.5 µM (inactive) | > 100 µM (inactive) | > 100 µM (inactive) | 34.1 µM (inactive) | 22 µM (inactive) | > 100 µM (inactive) | > 100 µM (inactive) | > 100 µM (inactive) | > 100 µM (inactive) | > 100 µM (inactive) | > 100 µM (inactive) | > 100 µM (inactive) | 26.7 µM (inactive) | –
Cc1ccc(S(=O)(=O)N/N=C/c2oc(-c3cccc([N+](=O)[O-])c3)c(-c3cccc([N+](=O)[O-])c3)c2[N+](=O)[O-])cc1 | – | 42.4 µM (inactive) | 37.8 µM (inactive) | 29.9 µM (inactive) | 27 µM (inactive) | 19.5 µM (inactive) | 31.9 µM (inactive) | 66.5 µM (inactive) | > 100 µM (inactive) | 24 µM (inactive) | 15.1 µM (inactive) | 23.4 µM (inactive) | > 100 µM (inactive) | 45.8 µM (inactive) | 36 µM (inactive) | 70.6 µM (inactive) | > 100 µM (inactive) | > 100 µM (inactive) | 17.6 µM (inactive) | –
O=C(N/N=C(\c1ccccc1)c1ccccn1)NC1CCCCC1 | 56.2 µM (inactive) | 47.9 µM (inactive) | 76 µM (inactive) | 30.6 µM (inactive) | – | 40.8 µM (inactive) | 61.8 µM (inactive) | 51.1 µM (inactive) | 41.1 µM (inactive) | 48.1 µM (inactive) | 47.4 µM (inactive) | 45.5 µM (inactive) | 65 µM (inactive) | 44.6 µM (inactive) | 59.3 µM (inactive) | – | – | 22.7 µM (inactive) | 72.6 µM (inactive) | –
O=P(Oc1ccc2ccccc2c1)(N1CC1)N1CC1 | – | 4.43 µM (inactive) | > 100 µM (inactive) | 83.4 µM (inactive) | 14.3 µM (inactive) | 44.9 µM (inactive) | 24.5 µM (inactive) | 27.6 µM (inactive) | 16.2 µM (inactive) | > 100 µM (inactive) | 11 µM (inactive) | 46.3 µM (inactive) | 55.6 µM (inactive) | 2.61 µM (inactive) | > 100 µM (inactive) | 59.2 µM (inactive) | 20.3 µM (inactive) | 89.1 µM (inactive) | 3.13 µM (inactive) | –
Cc1cccc2c(=O)c3cccc([C@H](C)C(=O)O)c3oc12 | > 100 µM (inactive) | > 100 µM (inactive) | > 100 µM (inactive) | > 100 µM (inactive) | – | > 100 µM (inactive) | > 100 µM (inactive) | > 100 µM (inactive) | > 100 µM (inactive) | > 100 µM (inactive) | > 100 µM (inactive) | > 100 µM (inactive) | > 100 µM (inactive) | > 100 µM (inactive) | > 100 µM (inactive) | > 100 µM (inactive) | > 100 µM (inactive) | > 100 µM (inactive) | > 100 µM (inactive) | –
CC[n+]1c(/C=C/c2ccc(N(CCCl)CCCl)cc2)ccc2cc(I)ccc21 | – | 1.23 µM (inactive) | 0.916 µM (active) | 0.587 µM (active) | 0.839 µM (active) | 0.319 µM (active) | 0.379 µM (active) | 0.67 µM (active) | 1.24 µM (inactive) | 0.601 µM (active) | 0.312 µM (active) | 1.31 µM (inactive) | 0.191 µM (active) | 2.71 µM (inactive) | 1.08 µM (active) | 0.771 µM (active) | 2.51 µM (inactive) | 0.608 µM (active) | 0.659 µM (active) | –
